In ChEMBL document CHEMBL6096674, “Design, Synthesis, and Anticancer Activity of Drug-like Iron Chelators/G-Quadruplex Binders as Synergic Dual Targeting Agents” (J Med Chem, 2025):
Active and inactive are the calls of the source. The calls are words filed in the database; no cut-off is given here.

How the values were obtained:
Quadruplex DNA [1] = experiment: Stabilization of Hybrid Bcl2 G4-quadruplex DNA (5'-AGGGCGCGGGAGGAAGGGGGCGGGA-3') (unknown origin) assessed as change in melting temperature at 5 equiv. by CD melting based analysis; format: nucleic-acid assay
Hairpin duplex DNA [2] = experiment: Stabilization of Hairpin duplex DNA (5'-CGCGAATTCGCGTTTCGCGAATTCGCG-3') (unknown origin) assessed as change in melting temperature at 5 equiv. by CD melting based analysis; format: nucleic-acid assay
Quadruplex DNA [3] = experiment: Stabilization of human Hybrid Tel23 G4-quadruplex DNA (5'-TAGGGTTAGGGTTAGGGTTAGGG-3') assessed as change in melting temperature at 5 equiv. by CD melting based analysis; format: nucleic-acid assay
Quadruplex DNA [4] = experiment: Stabilization of Parallel c-Kit2 G4-quadruplex DNA (5'-CGGGCGGGCGCTAGGGAGGGT-3') (unknown origin) assessed as change in melting temperature at 5 equiv. by CD melting based analysis; format: nucleic-acid assay
Quadruplex DNA [5] = experiment: Stabilization of Parallel c-Kit1 G4-quadruplex DNA (5'-AGGGAGGGCGCTGGGAGGAGGG-3') (unknown origin) assessed as change in melting temperature at 5 equiv. by CD melting based analysis; format: nucleic-acid assay
Quadruplex DNA [6] = experiment: Stabilization of Parallel c-Myc G4-quadruplex DNA (5'-TGAGGGTGGGTAGGGTGGGTAA-3') (unknown origin) assessed as change in melting temperature at 5 equiv. by CD melting based analysis; format: nucleic-acid assay
HCT-116 = experiment: Antiproliferative activity against human HCT-116 cells assessed as decrease in cell survival incubated for 48 hrs by MTT assay; format: functional, cell-based; settings: HCT-116, 48 h
[7] = Cytotoxicity against human HaCaT cells assessed as decrease in cell survival incubated for 48 hrs by MTT assay; format: toxicity, cell-based
Quadruplex DNA [8] = experiment: Binding affinity to Bcl-2 G4-quadruplex DNA (5'-AGGGCGCGGGAGGAAGGGGGCGGGA-3') (unknown origin) assessed as perturbations of imino protons of G8,G18 and G22 within middle G-tetrad with no significant change in aromatic proton regions upto compound:G4 ratio of 6:1 by ID IH NMR analysis; format: nucleic-acid assay
[9] = Metal chelating activity assessed as affinity to Fe3+ at compound:iron concentration ratio of 3:1 and measured at pH 7.4
[10] = Drug uptake in human Jurkat cells assessed as localization of compound in nuclear and perinuclear region at IC50 incubated for 24 hrs by NucSpot Live 488 probe based fluorescence microscopy; format: ADME, cell-based
Quadruplex DNA [11] = experiment: Binding affinity to Cy5-labeled Bcl-2 G4-quadruplex DNA (Cy5-AGGGCGCGGGAGGAAGGGGGCGGGA-3') (unknown origin) assessed as equilibrium dissociation constant measured at 25 degC by microscale thermophoresis analysis; format: nucleic-acid assay
[12] = Metal chelating activity assessed as compound-Fe3+ complex formation at compound:iron concentration ratio of 1:1 and measured in acidic medium
Hairpin duplex DNA [13] = experiment: Binding affinity to Cy5-labeled Hairpin duplex DNA (Cy5-CGCGAATTCGCGTTTCGCGAATTCGCG-3') (unknown origin) assessed as equilibrium dissociation constant measured at 25 degC by microscale thermophoresis analysis; format: nucleic-acid assay
Quadruplex DNA [14] = experiment: Binding affinity to c-Myc G4-quadruplex DNA (5'-TGAGGGTGGGTAGGGTGGGTAA-3') (unknown origin) assessed as perturbations of imino protons of G8,G12,G17,G21 within middle G-tetrad at compound:G4 ratio of 2:1 by 1D 1H NMR analysis; format: nucleic-acid assay
MCF7 = experiment: Antiproliferative activity against human MCF7 cells assessed as decrease in cell survival incubated for 48 hrs by MTT assay; format: functional, cell-based; settings: MCF7, 48 h
Quadruplex DNA [15] = experiment: Binding affinity to human Cy5-labeled Tel23 G4-quadruplex DNA (Cy5-TAGGGTTAGGGTTAGGGTTAGGG-3') assessed as equilibrium dissociation constant measured at 25 degC by microscale thermophoresis analysis; format: nucleic-acid assay
Quadruplex DNA [16] = experiment: Binding affinity to c-Myc G4-quadruplex DNA (5'-TGAGGGTGGGTAGGGTGGGTAA-3') (unknown origin) assessed as perturbations of imino protons of G7,G11,G16,G20 within 5' G-tetrad at compound:G4 ratio of 2:1 by 1D 1H NMR analysis; format: nucleic-acid assay
Quadruplex DNA [17] = experiment: Binding affinity to Bcl-2 G4-quadruplex DNA (5'-AGGGCGCGGGAGGAAGGGGGCGGGA-3') (unknown origin) assessed as perturbations of imino protons of G1,G17 and G21 within 5' G-tetrad with no significant change in aromatic proton regions upto compound:G4 ratio of 6:1 by ID IH NMR analysis; format: nucleic-acid assay
Jurkat [18] = experiment: Antiproliferative activity human Jurkat cells assessed as reduction in cell number incubated for 48 hrs by phase contrast light microscopy; format: functional, cell-based; settings: dose 10-100 µM
Quadruplex DNA [19] = experiment: Binding affinity to c-Myc G4-quadruplex DNA (5'-TGAGGGTGGGTAGGGTGGGTAA-3') (unknown origin) assessed as perturbations of imino protons of G9,G13,G18,G22 within 3' G-tetrad at compound:G4 ratio of 2:1 by 1D 1H NMR analysis; format: nucleic-acid assay
Quadruplex DNA [20] = experiment: Binding affinity to Bcl-2 G4-quadruplex DNA (5'-AGGGCGCGGGAGGAAGGGGGCGGGA-3') (unknown origin) assessed as perturbations of imino protons of G7,G19 and G23 within 3' G-tetrad with no significant change in aromatic proton regions upto compound:G4 ratio of 6:1 by ID IH NMR analysis; format: nucleic-acid assay
[21] = Metal chelating activity assessed as compound-Fe3+ complex formation at compound:iron concentration ratio of 3:1 and measured at pH 6 to 8
[22] = Metal chelating activity assessed as free Fe2+ chelation by measuring decrease in cellular LIP content at IC50 measured after 48 hrs by red fluorescent probe based fluorescence microscopy
[23] = Metal chelating activity assessed as compound-Fe3+ complex formation at compound:iron concentration ratio of 2:1 and measured in acidic medium
Jurkat [24] = experiment: Induction of apoptosis in human Jurkat cells assessed as induction of phosphotidylserine exposure at IC50 incubated for 48 hrs by fluorescence microscopy; format: functional, cell-based
Quadruplex DNA [25] = experiment: Binding affinity to Cy5-labeled c-Myc G4-quadruplex DNA (Cy5-TGAGGGTGGGTAGGGTGGGTAA-3') (unknown origin) assessed as equilibrium dissociation constant measured at 25 degC by microscale thermophoresis analysis; format: nucleic-acid assay
Jurkat [26] = experiment: Induction of apoptosis in human Jurkat cells assessed as reduction in Bcl-2 expression at IC50 incubated for 24 to 48 hrs by western blot analysis; format: functional, cell-based; settings: time 24-48 hrs
A-375 = experiment: Antiproliferative activity against human A-375 cells assessed as decrease in cell survival incubated for 48 hrs by MTT assay; format: functional, cell-based; settings: A-375, 48 h
Quadruplex DNA [27] = experiment: Binding affinity to Cy5-labeled c-Kit2 G4-quadruplex DNA (Cy5-CGGGCGGGCGCTAGGGAGGGT-3') (unknown origin) assessed as equilibrium dissociation constant measured at 25 degC by microscale thermophoresis analysis; format: nucleic-acid assay
Quadruplex DNA [28] = experiment: Binding affinity to c-Myc G4-quadruplex DNA (5'-TGAGGGTGGGTAGGGTGGGTAA-3') (unknown origin) assessed as perturbations of aromatic protons of T23, A24 and A25 with no significant change in aromatic protons of loops at compound:G4 ratio of 2:1 by 1D 1H NMR analysis; format: nucleic-acid assay
Jurkat [29] = experiment: Antiproliferative activity against human Jurkat cells assessed as decrease in cell survival incubated for 48 hrs by MTT assay; format: functional, cell-based

SMILES: COc1cn2c(cc1=O)c(=O)[nH]c1ccc(C(=O)NCCCN(C)C)cc12
- ΔTm (Quadruplex DNA [1]): 13.5 °C
- ΔTm (Hairpin duplex DNA [2]): 1.8 °C
- ΔTm (Quadruplex DNA [3]): 4.2 °C
- ΔTm (Quadruplex DNA [4]): 17.3 °C
- ΔTm (Quadruplex DNA [5]): 9.3 °C
- ΔTm (Quadruplex DNA [6]): 5.9 °C

SMILES: N=C(N)NCCCNC(=O)c1ccc2[nH]c(=O)c3cc(=O)c(O)cn3c2c1
- ΔTm (Quadruplex DNA [1]): 8.5 °C
- ΔTm (Hairpin duplex DNA [2]): 0.5 °C
- ΔTm (Quadruplex DNA [3]): 2.8 °C
- ΔTm (Quadruplex DNA [4]): 8.6 °C
- ΔTm (Quadruplex DNA [5]): 3.2 °C
- ΔTm (Quadruplex DNA [6]): 3.6 °C

SMILES: O=C(NCCN1CCCC1)c1ccc2[nH]c(=O)c3cc(=O)c(O)cn3c2c1
- ΔTm (Quadruplex DNA [1]): 1.6 °C
- ΔTm (Hairpin duplex DNA [2]): 2.5 °C
- ΔTm (Quadruplex DNA [3]): 2.7 °C
- ΔTm (Quadruplex DNA [4]): 6.6 °C
- ΔTm (Quadruplex DNA [5]): 3.6 °C
- ΔTm (Quadruplex DNA [6]): 5 °C

SMILES: O=C(O)c1ccc2[nH]c(=O)c3cc(=O)c(OCc4ccccc4)cn3c2c1
- ΔTm (Quadruplex DNA [1]): 1.4 °C
- ΔTm (Hairpin duplex DNA [2]): 1 °C
- ΔTm (Quadruplex DNA [3]): 1 °C
- ΔTm (Quadruplex DNA [4]): 3.3 °C
- ΔTm (Quadruplex DNA [5]): -0.1 °C
- ΔTm (Quadruplex DNA [6]): 0.5 °C

SMILES: O=C(NCc1ccccc1)c1ccc2[nH]c(=O)c3cc(=O)c(OCc4ccccc4)cn3c2c1
- ΔTm (Quadruplex DNA [1]): 3.6 °C
- ΔTm (Hairpin duplex DNA [2]): 0.3 °C
- ΔTm (Quadruplex DNA [3]): 1.2 °C
- ΔTm (Quadruplex DNA [4]): 7.5 °C
- ΔTm (Quadruplex DNA [5]): 0.1 °C
- ΔTm (Quadruplex DNA [6]): 3.7 °C

SMILES: CN(C)CCCNC(=O)c1ccc2[nH]c(=O)c3cc(=O)c(O)cn3c2c1
- IC50 (HCT-116): > 200 µM
- ΔTm (Quadruplex DNA [1]): 8.7 °C
- IC50 at 48 h [7]: > 200 µM
- Activity (Quadruplex DNA [8]): Active
- ΔTm (Hairpin duplex DNA [2]): 1.8 °C
- pFe3+ [9]: 16.8
- Drug uptake [10]: Active
- Kd (Quadruplex DNA [11]): 0.5 µM
- Activity [12]: Active
- Kd (Hairpin duplex DNA [13]): > 20 µM
- Activity (Quadruplex DNA [14]): Active
- IC50 (MCF7): > 200 µM
- Kd (Quadruplex DNA [15]): 3.1 µM
- ΔTm (Quadruplex DNA [3]): 3.8 °C
- Activity (Quadruplex DNA [16]): Active
- ΔTm (Quadruplex DNA [4]): 10.1 °C
- Activity (Quadruplex DNA [17]): Active
- Activity (Jurkat [18]): Dose-dependent-effect
- Activity (Quadruplex DNA [19]): Active
- Activity (Quadruplex DNA [20]): Active
- Activity [21]: Active
- Activity [22]: Active
- Activity [23]: Active
- Activity (Jurkat [24]): Active
- ΔTm (Quadruplex DNA [5]): 5.5 °C
- Kd (Quadruplex DNA [25]): 0.3 µM
- Activity (Jurkat [26]): Active
- IC50 (A-375): > 200 µM
- Kd (Quadruplex DNA [27]): 1.1 µM
- ΔTm (Quadruplex DNA [6]): 7.4 °C
- Activity (Quadruplex DNA [28]): Active
- IC50 (Jurkat [29]): 30 µM

SMILES: O=C(NCCN1CCOCC1)c1ccc2[nH]c(=O)c3cc(=O)c(O)cn3c2c1
- ΔTm (Quadruplex DNA [1]): -0.5 °C
- ΔTm (Hairpin duplex DNA [2]): 2.8 °C
- ΔTm (Quadruplex DNA [3]): 2.3 °C
- ΔTm (Quadruplex DNA [4]): 5.5 °C
- ΔTm (Quadruplex DNA [5]): 2.2 °C
- ΔTm (Quadruplex DNA [6]): 1.7 °C

SMILES: CN(C)CCCNC(=O)c1ccc2[nH]c(=O)c3cc(=O)c(OCc4ccccc4)cn3c2c1
- IC50 (HCT-116): > 200 µM
- ΔTm (Quadruplex DNA [1]): 15.6 °C
- IC50 at 48 h [7]: > 200 µM
- ΔTm (Hairpin duplex DNA [2]): 1.5 °C
- IC50 (MCF7): > 200 µM
- ΔTm (Quadruplex DNA [3]): 5.1 °C
- ΔTm (Quadruplex DNA [4]): 27.6 °C
- Activity (Jurkat [18]): Dose-dependent-effect
- Activity [22]: inactive
- ΔTm (Quadruplex DNA [5]): 9.6 °C
- IC50 (A-375): > 200 µM
- ΔTm (Quadruplex DNA [6]): 12 °C
- IC50 (Jurkat [29]): 55 µM

SMILES: Cc1c(O)c(=O)ccn1C
- pFe3+ [9]: 20
